Format in all cases: cell-based
The test system of experiment [1] is Plasmodium falciparum NF54 parasites. Nature of the experiment: P. falciparum asexual blood stage replication assay (SYBR Green). The following applies: NF54, 10% human serum, 72 incubation. How it is done: Compounds were tested on their ability to inhibit replication of the human malaria parasite Plasmodium falciparum. To this end, Plasmodium falciparum NF54 parasites were cultured in RPMI1640 medium supplemented with 367 μM hypoxanthine, 25 mM HEPES, 25 mM sodiumbicarbonate and 10% human type A serum in an automated large-scale culture system as described before (Transactions of the Royal Society of Tropical Medicine and Hygiene, 1982. 76: p. 812-818). Compounds were diluted in DMSO and subsequently in culture medium to reach a DMSO concentration of 0.2%. 50 μl of diluted compound was transferred to a black 96 well plate. A culture of P. falciparum strain NF54 malaria parasites was diluted to a parasitaemia of 0.5% and a hematocrit of 3%. 50 μl of this diluted culture was added to each well in the 96 well plate._The outermost wells of the plate were filled with sterile water to prevent evaporation. The established antimalarial dihydroartemisinin (DHA) in DMSO acted as a positive control (MIN signal), and 0.1% DMSO acted as a negative control (MAX signal). The plates were incubated for 72 at 37° C., 3% 02, 5% CO2, 93% N2. Changes in parasite replication relative to the controls were monitored using the DNA-marker SYBR Green as described previously (Antimicrob Agents Chemother 48:1803-6). Data were analyzed by logistic regression using the formula: Y=Bottom+(Top-Bottom)/(1+10̂((Log IC50−X)*HillSlope)) and a least squares method to find the best fit.
Using similar methods, IC50 values were determined for a variety of inverted pantothenamides, as listed in table 1 (see section: ‘Detailed description of the invention’)

A further experiment has as its system Streptococcus pyogenes. In words: Bacterial growth assay and MIC determination, S. pyogenes. To be noted: Streptococcus pyogenes; Table 1; most sensitive species S. pyogenes (SP); read-out: MIC (μg/ml) for most sensitive bacterial species. How it is done: (§1) Strains of Escherichia coli, Staphylococcus aureus and Staphylococcus epidermidis, were grown overnight in 1% Bacto tryptone medium (BD, Sparks, Md.). Streptococcus pyogenes was grown overnight in Bacto Todd Hewitt Broth medium (BD, Sparks, Md.). Cultures were then diluted 1:1,000 in fresh assay medium supplemented with or without 20% fetal bovine serum (FBS; HyClone, Celbio, Logan, Utah) and added to 96-well sterile enzyme-linked immunosorbent assay (ELISA) plates (100 μl per well). The compounds to be tested were diluted in the medium without serum and added to the bacteria (100 μl per well). Plates were incubated at 37° C., and bacterial growth was monitored over time by reading the optical density at 490 nm using a microplate reader (model 450; Bio-Rad Laboratories Inc., Hercules, Calif.). Streptococcus pneumoniae strains were grown to mid-log phase (OD620 of 0.3) and stored in 15% glycerol at […] till further use. Minimal inhibitory concentration (MIC) of antibiotics was determined according to standard procedures. Bacteria were diluted 10-fold in Mueller-Hinton medium (BD, Sparks, Md.) and added to 96-well sterile ELISA plates (150 μl per well). The compounds to be tested were diluted in the medium without serum and added to the bacteria (150 μl per well). Plates were incubated overnight at 37° C. in 5% CO2. The MIC was defined as the lowest concentration of compound at which no growth was visible with the naked eye.

The test system of experiment [2] is Staphylococcus epidermidis. In words: Bacterial growth assay and MIC determination, S. epidermidis. The following applies: Staphylococcus epidermidis; Table 1; most sensitive species S. epidermidis (SE); read-out: MIC (μg/ml) for most sensitive bacterial species. Here is the method: as §1
Experiment [3] relates to S. aureus (SA), S. epidermidis (SE), S. pyogenes (SP), S. pneumoniae (SPn). Nature of the experiment: MIC for most sensitive bacterial species (panel). To be noted: Table 1, no species named, read-out: MIC (μg/ml) for most sensitive bacterial species. Here is the method:
as §1

The subject of the next experiment is Staphylococcus aureus. Nature of the experiment: Bacterial growth assay and MIC determination, S. aureus. The following applies: Staphylococcus aureus, Table 1; most sensitive species S. aureus (SA); read-out: MIC (μg/ml) for most sensitive bacterial species. Here is the method:
as §1

Setting [4] is: Streptococcus pneumoniae, marked *: not tested for S. pneumoniae.

Converted amounts (≈) assume the structure as drawn. Like-named read-outs stand apart in the source and are kept apart here. Bounds are passed on as bounds.

`CC(C)CCC(=O)NCCNC(=O)[C@H](O)C(C)(C)CO` [CXP14.18-005] displayed a half-maximal inhibitory concentration (IC50) in experiment [1] of 2.78 µM. Moreover, the MIC with Streptococcus pyogenes came out at 8 µg/mL (≈ 27.7 µM).

Regarding `C=CCCC(=O)NCCNC(=O)[C@H](O)C(C)(C)CO` [CXP14.18-007], in experiment [1], the half-maximal inhibitory concentration (IC50) was 5.15 µM. In addition, the MIC in the experiment on Streptococcus pyogenes stood at 16 µg/mL (≈ 58.7 µM).

In experiment [1], `C=CCCCC(=O)NCCNC(=O)[C@H](O)C(C)(C)CO` [CXP14.18-008] displayed an IC50 of 0.74 µM. For the same molecule, the MIC in the experiment with Streptococcus pyogenes stood at 16 µg/mL (≈ 55.9 µM).

For the molecule `C=CCCCCC(=O)NCCNC(=O)[C@H](O)C(C)(C)CO` [CXP14.18-010], in experiment [1], the IC50 was 0.71 µM. For the same molecule, in the experiment with Streptococcus pyogenes, the MIC was determined as 16 µg/mL (≈ 53.3 µM).

Take `CCCCCCCCCCC(=O)NCCNC(=O)[C@H](O)C(C)(C)CO` [CXP14.18-012]: the MIC in experiment [2] stood at 8 µg/mL (≈ 22.3 µM). This molecule also showed an IC50 in experiment [1] of over 10 µM.

Turning to `C=CC(C)CC(=O)NCCNC(=O)[C@H](O)C(C)(C)CO` (stereo partly shown) [CXP14.18-014], the half-maximal inhibitory concentration (IC50) in experiment [1] was found to be 4.93 µM. In the experiment on Streptococcus pyogenes, the MIC worked out at 16 µg/mL (≈ 55.9 µM).

Take `C#CCCCC(=O)NCCNC(=O)[C@H](O)C(C)(C)CO` [CXP14.18-016]: the 50% inhibitory concentration (IC50) in experiment [1] worked out at 0.81 µM. In the experiment with Streptococcus pyogenes, the MIC was 32 µg/mL (≈ 113 µM).

With `CCC(=O)NCCNC(=O)[C@H](O)C(C)(C)CO` [CXP14.18-019], in experiment [1], the midpoint of inhibition, the IC50, lay at 0.17 µM. In addition, the MIC in experiment [3] (setting [4]) was over 32 µg/mL.

In the case of `CCCC(=O)NCCNC(=O)[C@H](O)C(C)(C)CO` [CXP14.18-020], in experiment [1], the IC50 is 2 µM. The MIC in the experiment with Streptococcus pyogenes is 32 µg/mL (≈ 123 µM).

With `CCCCC(=O)NCCNC(=O)[C@H](O)C(C)(C)CO` [CXP14.18-028], it took 0.85 µM to reach half-maximal inhibition in experiment [1] (IC50). For the same molecule, in the experiment on Streptococcus pyogenes, the MIC is 2 µg/mL (≈ 7.29 µM).

Regarding `CSCCCC(=O)NCCNC(=O)[C@H](O)C(C)(C)CO` [CXP14.18-034], the concentration for half-maximal inhibition (IC50) in experiment [1] was determined as 0.62 µM. Further, in the experiment on Streptococcus pyogenes, the MIC came to 8 µg/mL (≈ 26.1 µM).

In experiment [1], `CCOCCC(=O)NCCNC(=O)[C@H](O)C(C)(C)CO` [CXP14.18-035] returned a concentration for half-maximal inhibition (IC50) of over 10 µM. Also, the MIC in the experiment with Streptococcus pyogenes was found to be 16 µg/mL (≈ 55.1 µM).

`CCCSCC(=O)NCCNC(=O)[C@H](O)C(C)(C)CO` [CXP14.18-037] showed a 50% inhibitory concentration (IC50) in experiment [1] of 1.34 µM. Besides, in the experiment on Streptococcus pyogenes, the MIC is 4 µg/mL (≈ 13.1 µM).

In experiment [1], `CCSCCC(=O)NCCNC(=O)[C@H](O)C(C)(C)CO` [CXP14.18-038] had a concentration for half-maximal inhibition (IC50) of 0.37 µM. Moreover, the MIC in the experiment on Streptococcus pyogenes is 8 µg/mL (≈ 26.1 µM).

In experiment [1], `CC(C)(CO)[C@@H](O)C(=O)NCCNC(=O)Cc1ccccc1` [CXP18.6-007] had an IC50 of 3.9 µM. In addition, the MIC with Streptococcus pyogenes is 16 µg/mL (≈ 51.9 µM).

For `CC(C)(CO)[C@@H](O)C(=O)NCCNC(=O)CCCc1ccccc1` [CXP18.6-008], in experiment [2], the MIC came to 16 µg/mL (≈ 47.6 µM). Besides, in experiment [1], half-maximal inhibition (IC50) required 0.57 µM.

Regarding `CC(C)(CO)[C@@H](O)C(=O)NCCCNC(=O)Cc1ccccc1` [CXP18.6-009], the IC50 in experiment [1] was 9.2 µM. In addition, the MIC in experiment [3] (tested for SA, SE, SP and SPn) is over 32 µg/mL.

In turn, `CC(C)(CO)[C@@H](O)C(=O)NCCCNC(=O)CCc1ccccc1` [CXP18.6-010] came in with an IC50 in experiment [1] of 7.5 µM. In addition, in experiment [3] (tested for SA, SE, SP and SPn), the MIC was over 32 µg/mL.

As for `CC(C)(CO)[C@@H](O)C(=O)NCCNC(=O)CCc1cccc(F)c1` [CXP18.6-018], inhibition in experiment [1] was half-maximal at 0.1 µM (IC50). Moreover, the MIC with Streptococcus pyogenes is 16 µg/mL (≈ 47 µM).

For the molecule `CC(C)(CO)[C@@H](O)C(=O)NCCNC(=O)CCc1ccc(F)cc1` [CXP18.6-019], the MIC in experiment [2] worked out at 32 µg/mL (≈ 94 µM). The IC50 in experiment [1] stood at 0.42 µM.

As for `COc1ccc(CCC(=O)NCCNC(=O)[C@H](O)C(C)(C)CO)cc1` [CXP18.6-022], it took 1 µM to reach half-maximal inhibition in experiment [1] (IC50). The MIC in experiment [3] (tested for SA, SE, SP and SPn) is over 32 µg/mL.

Take `CC(C)(CO)[C@@H](O)C(=O)NCCNC(=O)CCc1ccccc1Cl` [CXP18.6-027]: the midpoint of inhibition in experiment [1], the IC50, lay at 0.58 µM. In experiment [3] (tested for SA, SE, SP and SPn), the MIC is over 32 µg/mL.

The molecule `CC(C)(CO)[C@@H](O)C(=O)NCCNC(=O)CCc1ccc(Cl)cc1` [CXP18.6-028] gave an IC50 in experiment [1] of 0.19 µM. Moreover, the MIC in experiment [3] (tested for SA, SE, SP and SPn) is over 32 µg/mL.

Take `CC(C)(CO)[C@@H](O)C(=O)NCCNC(=O)CCc1ccccc1C(F)(F)F` [CXP18.6-038]: the MIC in experiment [2] came to 32 µg/mL (≈ 82 µM). Further, in experiment [1], half-maximal inhibition (IC50) was put at 6.4 µM.

Molecule `CC(C)(CO)[C@@H](O)C(=O)NCCNC(=O)CCc1ccc(C(F)(F)F)cc1` [CXP18.6-042] returned a concentration for half-maximal inhibition (IC50) in experiment [1] of 0.21 µM. Further, the MIC in experiment [3] (tested for SA, SE, SP and SPn) is over 32 µg/mL.

In the case of `CC(C)(C)c1ccc(CCC(=O)NCCNC(=O)[C@H](O)C(C)(C)CO)cc1` [CXP18.6-043], the IC50 in experiment [1] was 0.15 µM. Moreover, the MIC in experiment [3] (tested for SA, SE, SP and SPn) was over 32 µg/mL.

Regarding `CC(C)(CO)[C@@H](O)C(=O)NCCNC(=O)/C=C/c1ccccc1` [CXP18.6-048], the MIC in experiment [2] was determined as 16 µg/mL (≈ 49.9 µM). This molecule also returned an IC50 in experiment [1] of 2.2 µM.

In the case of `CC(C)(CO)[C@@H](O)C(=O)NCCNC(=O)CCc1ccccn1` [CXP18.6-055], the MIC in experiment [2] is 32 µg/mL (≈ 99 µM). The molecule further returned a concentration for half-maximal inhibition (IC50) in experiment [1] of 1.6 µM.

For `CC(C)(CO)[C@@H](O)C(=O)NCCNC(=O)CCc1ccncc1` [CXP18.6-056], 0.47 µM corresponded to half-maximal inhibition in experiment [1] (IC50). In addition, the MIC in experiment [3] (setting [4]) is over 32 µg/mL.

For the molecule `CC(C)(CO)[C@@H](O)C(=O)NCCNC(=O)CCc1ccco1` [CXP18.6-057], the MIC (in experiment [2]; in the experiment with Staphylococcus aureus) was 16 µg/mL (≈ 51.2 µM) throughout. Moreover, in experiment [1], the concentration for half-maximal inhibition (IC50) came to 0.4 µM.

With `CC(C)(CO)[C@@H](O)C(=O)NCCNC(=O)CCc1ccc(F)cc1F` [CXP18.6-069], the MIC in experiment [2] was found to be 4 µg/mL (≈ 11.2 µM). The molecule also had a half-inhibitory concentration (IC50) in experiment [1] of 0.11 µM.

As to `C[C@@H](CNC(=O)[C@H](O)C(C)(C)CO)NC(=O)CCc1ccccc1F` [MMV689258], in experiment [1], the midpoint of inhibition, the IC50, lay at 0.004 µM. The MIC in experiment [3] (tested for SA, SE, SP and SPn) was over 32 µg/mL.

Turning to `C[C@H](CNC(=O)[C@H](O)C(C)(C)CO)NC(=O)CCc1ccccc1F` [MMV689260], in experiment [1], the IC50 was 0.21 µM. In addition, the MIC in experiment [3] (tested for SA, SE, SP and SPn) is over 32 µg/mL.

The values above are taken from patent US20180282279A1, “Pantothenamide Analogues” (Radboud Universitair Medisch Centrum, priority 2014, published 2018).
